Test system: MOLM-13 cells
Assay: MOLM-13 cell viability assay (CellTiter-Glo)
Assay type: cell-based
Conditions: Homo sapiens, MOLM-13, 72 h, 3 days, concentration of 1 μM, read-out: Antiproliferative Activity (inhibition, MOLM-13 cell viability)
Protocol: MOLM-13 cells were cultured in RPMI 1640 media supplemented with 10% fetal bovine serum, streptomycin, and penicillin. The cells were plated in white walled 96-well plates at 2,500 cells/well. The cells were incubated in DMSO (control) or an indicated compound for 3 days at 37° C. and 5% CO2. Following the incubation period, 100 μL of CELLTITER-GLO® (CTG) reagent was added to each well. Following a 10 minutes incubation with shaking, luminescence was measured using an ENVISION® Multimode plate reader.

SMILES | cytotoxicity at 1 µM [%]
CC1(c2ccc(C(=O)C(=O)NCc3scc4c3CN(C3CCC(=O)NC3=O)C4=O)cc2)CC1 (stereo not shown) [Compound I-42, N-((5-(2,6-dioxopiperidin-3-yl)-4-oxo-5,6-dihydro-4H-thieno[3,4-c]pyrrol-1-yl)methyl)-2-(4-(1-methylcyclopropyl)phenyl)-2-oxoacetamide] | 50 to 80
CC(C)(C)c1ccc(S(=O)(=O)NCc2scc3c2CN(C2CCC(=O)NC2=O)C3=O)cc1 (stereo not shown) [II-124, 4-(tert-butyl)-N-((5-(2,6-dioxopiperidin-3-yl)-4-oxo-5,6-dihydro-4H-thieno[3,4-c]pyrrol-1-yl)methyl)benzenesulfonamide] | < 25
Cc1ccc(CCCC(=O)NCc2scc3c2CN(C2CCC(=O)NC2=O)C3=O)cc1Cl (stereo not shown) [II-41, 4-(3-chloro-4-methylphenyl)-N-((5-(2,6-dioxopiperidin-3-yl)-4-oxo-5,6-dihydro-4H-thieno[3,4-c]pyrrol-1-yl)methyl)butanamide] | 25 to 50
CC(C)(C)c1ccc(C(O)(C(=O)NCc2scc3c2CN(C2CCC(=O)NC2=O)C3=O)C(F)(F)F)cc1 (stereo not shown) [II-133, 2-(4-(tert-butyl)phenyl)-N-((5-(2,6-dioxopiperidin-3-yl)-4-oxo-5,6-dihydro-4H-thieno[3,4-c]pyrrol-1-yl)methyl)-3,3,3-trifluoro-2-hydroxypropanamide] | < 25
Cc1ccc(C(=O)C(=O)NCc2scc3c2CN(C2CCC(=O)NC2=O)C3=O)cc1Cl (stereo not shown) [Compound I-6, 2-(3-chloro-4-methylphenyl)-N-((5-(2,6-dioxopiperidin-3-yl)-4-oxo-5,6-dihydro-4H-thieno[3,4-c]pyrrol-1-yl)methyl)-2-oxoacetamide] | 25 to 50
N#Cc1ccc(C(=O)C(=O)NCc2cccc3c2CN(C2CCC(=O)NC2=O)C3=O)cc1 (stereo not shown) [Compound I-76, 2-(4-cyanophenyl)-N-((2-(2,6-dioxopiperidin-3-yl)-1-oxoisoindolin-4-yl)methyl)-2-oxoacetamide] | < 25
CN(C)Cc1ccc(C(=O)C(=O)NCc2scc3c2CN(C2CCC(=O)NC2=O)C3=O)cc1 (stereo not shown) [Compound I-25, 2-(4-((dimethylamino)methyl)phenyl)-N-((5-(2,6-dioxopiperidin-3-yl)-4-oxo-5,6-dihydro-4H-thieno[3,4-c]pyrrol-1-yl)methyl)-2-oxoacetamide] | < 25
CC(C)C(C(=O)NCc1scc2c1CN(C1CCC(=O)NC1=O)C2=O)c1ccc(C(C)(C)C)cc1 (stereo not shown) [II-94, 2-(4-(tert-butyl)phenyl)-N-((5-(2,6-dioxopiperidin-3-yl)-4-oxo-5,6-dihydro-4H-thieno[3,4-c]pyrrol-1-yl)methyl)-3-methylbutanamide] | < 25
CC1CCC(CC(=O)NCc2scc3c2CN(C2CCC(=O)NC2=O)C3=O)CC1 (stereo not shown) [II-75, N-((5-(2,6-dioxopiperidin-3-yl)-4-oxo-5,6-dihydro-4H-thieno[3,4-c]pyrrol-1-yl)methyl)-2-(4-methylcyclohexyl)acetamide] | < 25
Cc1ccc(NCCCCCNCc2scc3c2CN(C2CCC(=O)NC2=O)C3=O)cc1Cl (stereo not shown) [II-64, 3-(1-(((5-((3-chloro-4-methylphenyl)amino)pentyl)amino)methyl)-4-oxo-4H-thieno[3,4-c]pyrrol-5(6H)-yl)piperidine-2,6-dione] | < 25
Cc1ccc(NC(=O)NCCc2scc3c2CN(C2CCC(=O)NC2=O)C3=O)cc1Cl (stereo not shown) [II-31, 1-(3-chloro-4-methylphenyl)-3-(2-(5-(2,6-dioxopiperidin-3-yl)-4-oxo-5,6-dihydro-4H-thieno[3,4-c]pyrrol-1-yl)ethyl)urea] | > 80
Cc1ccc(CNC(=O)NCc2cc3c(s2)CN(C2CCC(=O)NC2=O)C3=O)cc1Cl (stereo not shown) [II-21, 1-(3-chloro-4-methylbenzyl)-3-((5-(2,6-dioxopiperidin-3-yl)-4-oxo-5,6-dihydro-4H-thieno[2,3-c]pyrrol-2-yl)methyl)urea] | 50 to 80
CN(Cc1ccc2c(c1)CN(C1CCC(=O)NC1=O)C2=O)C(=O)C(=O)c1ccc(C(C)(C)C)cc1 (stereo not shown) [Compound I-34, 2-(4-(tert-butyl)phenyl)-N-((2-(2,6-dioxopiperidin-3-yl)-1-oxoisoindolin-5-yl)methyl)-N-methyl-2-oxoacetamide] | < 25
Cc1ccc(NC(=O)NCc2cc3c(s2)C(=O)N([C@@H]2CCC(=O)NC2=O)C3)cc1Cl [II-91, (R)-1-(3-chloro-4-methylphenyl)-3-((5-(2,6-dioxopiperidin-3-yl)-6-oxo-5,6-dihydro-4H-thieno[2,3-c]pyrrol-2-yl)methyl)urea] | > 80
Cc1cc(C)c(C(=O)C(=O)NCc2ccc3c(c2)CN(C2CCC(=O)NC2=O)C3=O)c(C)c1 (stereo not shown) [Compound I-85, N-((2-(2,6-dioxopiperidin-3-yl)-1-oxoisoindolin-5-yl)methyl)-2-oxo-2-(2,4,6-trimethylphenyl)acetamide] | 50 to 80
Cc1ccc(NC(=O)NCc2cc3c(s2)C(=O)N(C2CCC(=O)N(COC(=O)[C@H](N)C(C)C)C2=O)C3)cc1Cl (stereo partly drawn) [II-82, (3-(2-((3-(3-chloro-4-methylphenyl)ureido)methyl)-6-oxo-4,6-dihydro-5H-thieno[2,3-c]pyrrol-5-yl)-2,6-dioxopiperidin-1-yl)methyl D-valinate] | > 80

SMILES | cytotoxicity at 1 µM [%]
O=C(CCCc1ccc(N2CCOCC2)cc1)NCc1scc2c1CN(C1CCC(=O)NC1=O)C2=O (stereo not shown) [II-146, N-((5-(2,6-dioxopiperidin-3-yl)-4-oxo-5,6-dihydro-4H-thieno[3,4-c]pyrrol-1-yl)methyl)-4-(4-morpholinophenyl)butanamide] | < 25
Cc1ccc(CC(=O)NCc2scc3c2CN(C2CCC(=O)NC2=O)C3=O)cc1N(C)C (stereo not shown) [II-68, 2-(3-(dimethylamino)-4-methylphenyl)-N-((5-(2,6-dioxopiperidin-3-yl)-4-oxo-5,6-dihydro-4H-thieno[3,4-c]pyrrol-1-yl)methyl)acetamide] | 25 to 50
CN(C)CCOc1ccc(CC(=O)NCc2scc3c2CN(C2CCC(=O)NC2=O)C3=O)cc1 (stereo not shown) [II-80, 2-(4-(2-(dimethylamino)ethoxy)phenyl)-N-((5-(2,6-dioxopiperidin-3-yl)-4-oxo-5,6-dihydro-4H-thieno[3,4-c]pyrrol-1-yl)methyl)acetamide] | < 25
CC(C)(C)c1ccc(C(O)C(=O)NCc2scc3c2CN(C2CCC(=O)NC2=O)C3=O)cc1 (stereo not shown) [II-132, 2-(4-(tert-butyl)phenyl)-N-((5-(2,6-dioxopiperidin-3-yl)-4-oxo-5,6-dihydro-4H-thieno[3,4-c]pyrrol-1-yl)methyl)-2-hydroxyacetamide] | 25 to 50
O=C1CCC(N2Cc3c(CNC(=O)C(=O)c4ccc(Cl)cc4)cccc3C2=O)C(=O)N1 (stereo not shown) [Compound I-77, 2-(4-chlorophenyl)-N-((2-(2,6-dioxopiperidin-3-yl)-1-oxoisoindolin-4-yl)methyl)-2-oxoacetamide] | < 25
COc1cccc(C(=O)C(=O)NCc2ccc3c(c2)CN(C2CCC(=O)NC2=O)C3=O)c1 (stereo not shown) [Compound I-95, N-((2-(2,6-dioxopiperidin-3-yl)-1-oxoisoindolin-5-yl)methyl)-2-(3-methoxyphenyl)-2-oxoacetamide] | > 80
CCCOc1ccc(C(N)C(=O)NCc2scc3c2CN(C2CCC(=O)NC2=O)C3=O)cc1 (stereo not shown) [II-112, 2-amino-N-((5-(2,6-dioxopiperidin-3-yl)-4-oxo-5,6-dihydro-4H-thieno[3,4-c]pyrrol-1-yl)methyl)-2-(4-propoxyphenyl)acetamide] | < 25
CN(C)c1cc(NC(=O)NCc2cc3c(s2)C(=O)N(C2CCC(=O)NC2=O)C3)ccc1C(F)(F)F (stereo not shown) [II-55, 1-(3-(dimethylamino)-4-(trifluoromethyl)phenyl)-3-((5-(2,6-dioxopiperidin-3-yl)-6-oxo-5,6-dihydro-4H-thieno[2,3-c]pyrrol-2-yl)methyl)urea] | > 80
O=C(Cc1ccc(F)cc1)NCc1scc2c1CN(C1CCC(=O)NC1=O)C2=O (stereo not shown) [II-25, N-((5-(2,6-dioxopiperidin-3-yl)-4-oxo-5,6-dihydro-4H-thieno[3,4-c]pyrrol-1-yl)methyl)-2-(4-fluorophenyl)acetamide] | < 25
O=C1CCC(N2Cc3c(CNC(=O)C(=O)c4ccc(F)c(F)c4)cccc3C2=O)C(=O)N1 (stereo not shown) [Compound I-73, 2-(3,4-difluorophenyl)-N-((2-(2,6-dioxopiperidin-3-yl)-1-oxoisoindolin-4-yl)methyl)-2-oxoacetamide] | < 25
Cc1ccc(NC(=O)NCc2cc3c(s2)C(=O)N(C2(C)CCC(=O)NC2=O)C3)cc1Cl (stereo not shown) [II-73, 1-(3-chloro-4-methylphenyl)-3-((5-(3-methyl-2,6-dioxopiperidin-3-yl)-6-oxo-5,6-dihydro-4H-thieno[2,3-c]pyrrol-2-yl)methyl)urea] | < 25
CC(C)c1ccc(CC(=O)NCc2scc3c2CN(C2CCC(=O)NC2=O)C3=O)cc1 (stereo not shown) [II-74, N-((5-(2,6-dioxopiperidin-3-yl)-4-oxo-5,6-dihydro-4H-thieno[3,4-c]pyrrol-1-yl)methyl)-2-(4-isopropylphenyl)acetamide] | < 25
Cc1cc(CCCC(=O)NCc2scc3c2CN(C2CCC(=O)NC2=O)C3=O)ccc1N(C)C (stereo not shown) [II-115, 4-(4-(dimethylamino)-3-methylphenyl)-N-((5-(2,6-dioxopiperidin-3-yl)-4-oxo-5,6-dihydro-4H-thieno[3,4-c]pyrrol-1-yl)methyl)butanamide] | < 25
Cc1ccc(NC(=O)NCc2cc3c(s2)C(=O)N(C2CCC(=O)NC2=O)C3)cc1O (stereo not shown) [II-46, 1-((5-(2,6-dioxopiperidin-3-yl)-6-oxo-5,6-dihydro-4H-thieno[2,3-c]pyrrol-2-yl)methyl)-3-(3-hydroxy-4-methylphenyl)urea] | 25 to 50
Cc1ccc(NC(=O)NCc2cc3c(s2)C(=O)N([C@H]2CCC(=O)NC2=O)C3)cc1Cl [II-90, (S)-1-(3-chloro-4-methylphenyl)-3-((5-(2,6-dioxopiperidin-3-yl)-6-oxo-5,6-dihydro-4H-thieno[2,3-c]pyrrol-2-yl)methyl)urea] | > 80
